Where a SMILES comes first, the peptide text is derived from it. Bridges are numbered along the chain shown (N, C = ends). [ ]: non-standard residue; d: D form. Ala(benzothiazol-2-yl) = N[C@@H](Cc1nc2ccccc2s1)C(=O)O; NH = not defined here
T1: EpoR in AsPC-1 cells (Homo sapiens, UniProt P19235)
T1 construct: The test used human pancreatic cancer derived AsPC-1 cells (ECACC, 96020930); host or cells: AsPC-1
T1 sequence (P19235 25-508): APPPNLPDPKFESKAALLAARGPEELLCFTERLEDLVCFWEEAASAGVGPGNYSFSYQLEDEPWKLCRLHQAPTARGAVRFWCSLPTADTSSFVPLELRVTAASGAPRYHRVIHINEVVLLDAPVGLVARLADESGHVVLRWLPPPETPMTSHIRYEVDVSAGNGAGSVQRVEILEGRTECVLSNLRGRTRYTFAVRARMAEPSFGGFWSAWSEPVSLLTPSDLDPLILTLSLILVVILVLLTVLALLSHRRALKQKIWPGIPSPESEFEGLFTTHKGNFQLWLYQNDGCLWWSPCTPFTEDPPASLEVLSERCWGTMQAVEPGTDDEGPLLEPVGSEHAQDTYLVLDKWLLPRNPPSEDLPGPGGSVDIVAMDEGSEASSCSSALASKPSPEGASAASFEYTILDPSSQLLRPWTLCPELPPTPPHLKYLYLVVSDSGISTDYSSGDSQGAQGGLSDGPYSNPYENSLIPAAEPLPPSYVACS

T2: EpoR in bone marrow cells (Mus musculus, UniProt P14753)
T2 construct: tissue Japan SLC; host or cells: mouse (ICR, female) femur bone marrow cells
T2 sequence (P14753 25-507): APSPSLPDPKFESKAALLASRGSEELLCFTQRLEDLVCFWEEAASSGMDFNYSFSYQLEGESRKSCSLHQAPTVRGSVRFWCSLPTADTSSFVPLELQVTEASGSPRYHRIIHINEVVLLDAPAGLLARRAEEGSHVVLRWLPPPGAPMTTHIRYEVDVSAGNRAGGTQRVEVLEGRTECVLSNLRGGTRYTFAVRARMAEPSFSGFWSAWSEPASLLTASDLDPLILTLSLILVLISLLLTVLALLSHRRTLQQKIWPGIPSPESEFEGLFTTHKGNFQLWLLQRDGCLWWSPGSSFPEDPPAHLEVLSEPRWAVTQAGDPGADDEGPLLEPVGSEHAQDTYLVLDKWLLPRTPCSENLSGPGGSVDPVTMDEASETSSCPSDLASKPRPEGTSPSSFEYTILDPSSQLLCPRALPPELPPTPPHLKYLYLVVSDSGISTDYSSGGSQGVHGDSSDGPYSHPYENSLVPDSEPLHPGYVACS

T3: EpoR in HCC1806 cells (Homo sapiens, UniProt P19235)
T3 construct: human breast cancer derived HCC1806 cells (ATCC, CRL-2335); host or cells: HCC1806
T3 sequence (P19235 25-508): T1 sequence (P19235 25-508)

T4: human βcR (CD131, CSF2RB) (human, UniProt P32927 17-897)
T4 construct: Endogenous on AsPC-1 and HCC1806 cells; also called βc receptor; IL3RB
T4 sequence: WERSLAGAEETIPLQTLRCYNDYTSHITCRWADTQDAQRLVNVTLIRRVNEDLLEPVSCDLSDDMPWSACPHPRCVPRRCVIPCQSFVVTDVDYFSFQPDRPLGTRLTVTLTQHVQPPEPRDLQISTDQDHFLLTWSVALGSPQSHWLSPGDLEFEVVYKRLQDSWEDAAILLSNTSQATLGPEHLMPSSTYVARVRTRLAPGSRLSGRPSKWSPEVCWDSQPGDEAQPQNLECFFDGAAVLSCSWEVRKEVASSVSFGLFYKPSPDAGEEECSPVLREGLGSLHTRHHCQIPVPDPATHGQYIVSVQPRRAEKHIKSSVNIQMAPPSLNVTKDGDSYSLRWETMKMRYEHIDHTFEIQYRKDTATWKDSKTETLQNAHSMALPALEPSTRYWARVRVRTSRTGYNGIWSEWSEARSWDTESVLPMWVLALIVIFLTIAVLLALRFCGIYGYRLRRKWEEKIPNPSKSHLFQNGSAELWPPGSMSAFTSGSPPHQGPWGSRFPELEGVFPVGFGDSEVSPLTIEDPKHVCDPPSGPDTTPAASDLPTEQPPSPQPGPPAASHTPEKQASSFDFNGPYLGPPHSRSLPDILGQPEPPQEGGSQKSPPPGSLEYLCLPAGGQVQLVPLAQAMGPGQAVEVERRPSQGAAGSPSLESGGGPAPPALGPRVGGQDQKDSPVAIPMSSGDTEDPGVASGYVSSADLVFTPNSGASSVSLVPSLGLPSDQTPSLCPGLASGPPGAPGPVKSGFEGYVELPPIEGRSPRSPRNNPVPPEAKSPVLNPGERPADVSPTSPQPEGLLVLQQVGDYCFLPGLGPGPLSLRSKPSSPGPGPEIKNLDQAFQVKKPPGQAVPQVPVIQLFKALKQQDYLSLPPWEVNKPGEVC

B1: human erythropoietin receptor (EpoR), wild-type (receptor)
chain: T1 sequence (P19235 25-508)
notes: Endogenous on human AsPC-1, HCC1806 and UT-7/Epo cells, or overexpressed from a vector in AsPC-1 and 293T cells; also called Epo receptor; wild-type EpoR
B2: Ac-SCHYGPLT (2-benzothiazolylalanine)VCK-NH-(biotin) (GT-11352) (peptide)
peptide: Ac-SCHYGPLT[Ala(benzothiazol-2-yl)]VCK-{NH-biotin}
modifications: disulfide 2-11; reading uncertain; also: printed as Ac-SCHYGPLT (2-benzothiazolylalanine)VCK-NH-(biotin)
notes: Synthetic, biotin-labeled peptide; also called anti-EpoR peptide

Experiments:
[1] = Body weight of AsPC-1 cancer bearing mice; type: in vivo, mouse; conditions: ERA-350 0.2 mg/day intraperitoneally, twice a week for 4 weeks
Method: AsPC-1 cells cultured in the similar manner as Example 1 were collected, suspended in RPMI-1640 medium containing 10% Matrigel (BD Bioscience, 354234), and transplanted subcutaneously to the right side on the back of a 6-week-old male nude mouse (Japan SLC, BALB/cSlc-nu/nu) (5×10^6/0.1 mL/mouse). The length (L) and width (W) of the tumor were measured using a digital caliper. When the tumor volume (V) calculated from the formula V=L×W^2/2 reached about 150 to 200 mm^3, the mice were separated into groups and administered with test compounds (ERA-350 and ERA-350+gemcitabine). Saline was administered to a control group. The compounds were administered intraperitoneally (0.1 mL/mouse, 6 mice/test compound) once daily (0.2 mg/day for ERA-350, and 1 mg/day for gemcitabine), twice a week for 4 weeks. The tumor size and body weight were measured twice a week to monitor the effect of the administration of test compounds.

[2] = target: T1, EpoR in AsPC-1 cells; experiment: Immunofluorescence co-localization of biotin-labeled anti-EpoR peptide with EpoR in AsPC-1 cells; type: cell-based; conditions: 100 μM, 1 hour at 37° C.
Method: (§1) The test used human pancreatic cancer derived AsPC-1 cells (ECACC, 96020930) and human breast cancer derived HCC1806 cells (ATCC, CRL-2335) that were passaged (twice/week) under the condition of 37° C. and 5% CO2-95% air using RPMI-1640 medium (Sigma, R8758-500 ML) containing 10% fetal bovine serum (biowest, S182H-500) and 1 mM sodium pyruvate (gibco, 11360-070).
(§2) These bone marrow cells (2×10^6 cells) and cancer cells (AsPC-1 cells and HCC1806 cells; both 2×10^3 cells) were incubated with GT-11352 (biotin labeled, 100 μM) for 1 hour at 37° C. in the presence or absence of recombinant human erythropoietin (rhEpo) (10 U/mL). Subsequently, the cells were fixed with formalin, blocked, and subjected to immunofluorescent staining. The nucleus was stained by DAPI staining. The cells were observed through fluorescence with a microscope (Keyence, BZ-X800). The following antibodies were used. • EpoR detection: rat anti-EpoR antibody (Merck, clone BCO-3H2) and anti-rat IgG-Alexa® Fluor 594 (Abcam, ab150160) • GT-11352 detection: streptavidin-FITC (Tokyo Chemical Industry, S0966)

[3] = target: T2, EpoR in bone marrow cells; experiment: Immunofluorescence co-localization of biotin-labeled anti-EpoR peptide with EpoR in bone marrow cells; type: cell-based; conditions: 100 μM, 1 hour at 37° C.
Method: Bone marrow cells were harvested from mouse femur (Japan SLC, ICR, female).
as §2

[4] = target: T3, EpoR in HCC1806 cells; experiment: Immunofluorescence co-localization of biotin-labeled anti-EpoR peptide with EpoR in HCC1806 cells; type: cell-based; conditions: 100 μM, 1 hour at 37° C.
Method: as §1, §2

[5] = target: T4, human βcR (CD131, CSF2RB); experiment: co-immunoprecipitation from membrane fractions of AsPC-1 cells (IP with anti-EpoR VP-2E8, blot with anti-EpoR BCO-3H2 or anti-βcR polyclonal antibody)
Method: The stable expression strain was cultured and collected. Membrane fractions were prepared using a commercially available membrane protein extraction kit (Mem-PER Plus Membrane Protein Extraction Kit, Thermo Scientific).

[6] = target: B1; experiment: immunofluorescence colocalization on AsPC-1 and HCC1806 cells, GT-11352 100 µM, no rhEpo

Molecule: CSCC[C@@H]1NC(=O)[C@@H]2CCCN2C(=O)CNC(=O)[C@H](Cc2ccc(O)cc2)NC(=O)[C@H](Cc2c[nH]cn2)NC(=O)[C@@H](NC(=O)[C@H](CO)NC(C)=O)CSSC[C@@H](C(=O)N[C@@H](CCCCN)C(N)=O)NC(=O)[C@H](C(C)C)NC(=O)[C@H](Cc2nc3ccccc3s2)NC(=O)[C@H]([C@@H](C)O)NC1=O [ERA-350] (Ac-SCHYGPMT[Ala(benzothiazol-2-yl)]VCK-NH2; disulfide 2-11)
Body weight [1]: did not affect the body weight

Molecule: Ac-SCHYGPLT (2-benzothiazolylalanine)VCK-NH-(biotin) [GT-11352]
Co-localization of EpoR and peptide ([2]; absence of erythropoietin): exhibited colocalization
Co-localization of EpoR and peptide ([2]; presence of rhEpo 10 U/mL): exhibited colocalization
Co-localization of EpoR and peptide ([3]; absence of erythropoietin): exhibited colocalization
Co-localization of EpoR and peptide ([3]; presence of rhEpo 10 U/mL): did not exhibit co-localization
Co-localization of EpoR and peptide ([4]; absence of erythropoietin): exhibited colocalization
Co-localization of EpoR and peptide ([4]; presence of rhEpo 10 U/mL): exhibited colocalization

Molecule: B1
binding result [5]: binds

Molecule: B2
binding result [6]: binds

— patent US20230310539A1, “TREATMENT OF DISEASE WITH EPOR ANTAGONIST” (Epo-Med Inc., priority 2020, published 2023)
